The results in this text go back to patent US6562978B1, “Cyclic amine compounds as CCR5 antagonists” (Takeda Chemical Industries, Ltd., priority 1999, dated 2003).

Each structure is given as a SMILES string. Structures can show the parent of a compound that is named as a salt.

T1 sequence (P51681 whole entry): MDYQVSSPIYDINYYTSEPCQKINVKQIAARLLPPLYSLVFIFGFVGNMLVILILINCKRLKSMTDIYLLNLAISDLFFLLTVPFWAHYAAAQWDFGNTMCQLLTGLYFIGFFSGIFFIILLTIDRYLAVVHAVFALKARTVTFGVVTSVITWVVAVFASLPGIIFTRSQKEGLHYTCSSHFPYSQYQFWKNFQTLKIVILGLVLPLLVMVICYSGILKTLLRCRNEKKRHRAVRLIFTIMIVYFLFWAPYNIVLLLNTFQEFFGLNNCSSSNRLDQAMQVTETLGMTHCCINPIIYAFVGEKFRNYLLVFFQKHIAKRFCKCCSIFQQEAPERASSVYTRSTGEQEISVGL

This assay addresses T1, human CCR5 (Homo sapiens, UniProt P51681).
T1 construct: expressed in transfected cells; whole cells in the well
Put plainly: CCR5 binding assay: inhibition of [125I]-RANTES binding to CHO/CCR5 cells. The conditions noted are these: 1.0 μM test compound, 100 pM [125I]-RANTES, room temperature 40 minutes, read-out: Inhibition Rate (%) at 1.0 μM. The protocol: (1) Cloning of Human CCR5 Chemokine Receptor
Cloning of CCR5 gene was carried out by PCR (polymerase chain reaction) from human spleen cDNA. With using 0.5 ng of spleen cDNA (Toyobo, QUICK-Clone cDNA) as template, PCR was performed in DNA Thermal Cycler 480 (Perkin-Elmer) (reaction conditions: 30 cycles of 95° C. for 1 minute, 60° C. for 1 minute, and 75° C. for 5 minutes) by adding primer set, 5′-[…]-3′ (25 pmol) and 5′-[…]-3′ (25 pmol), which were designed referring to nucleotide sequence of CCR5 gene reported by Samson et al. (Biochemistry, 35(11), 3362-3367 (1996)) and by using TaKaRa EX Taq (Takara Shuzo). The resultant PCR product was subjected to agarose gel electrophoresis to collect about 1.0 kb DNA fragment, which was subjected to Original TA Cloning Kit (Funakoshi) to carry out cloning of CCR5 gene.
(2) Preparation of Plasmid for Expression of Human […]
The plasmid obtained in the above (1) was digested with restriction enzymes XbaI (Takara Shuzo) and BamHI (Takara Shuzo) and subjected to agarose gel electrophoresis to collect about 1.0 kb DNA fragment. The DNA fragment was mixed with plasmid pcDNA3.1 (Funakoshi) for expression in animal cells, said plasmid being digested with XbaI and BamHI, and they were ligated with DNA Ligation Kit Ver.2 (Takara Shuzo). The resulting plasmid was subjected to transformation of competent cell of E. coli JM109 (Takara Shuzo) to obtain plasmid pCKR5.
(3) Introduction of Plasmid for Expression of Human CCR5 into CHO-K1 Cell and Expression of said Plasmid in CHO-KY Cell
CHO-K1 cells were grown in 750 ml of tissue culture flask (Becton Dickinson) using Ham's F12 medium (Nihon Pharmaceutical) containing 10% fetal calf serum (Life Tech Oriental) and took off with 0.5 g/L trypsin-0.2 g/L EDTA (Life Tech Oriental). The cells were washed with PBS (Life Tech Oriental), centrifuged (1000 rpm, 5 minutes), and suspended in PBS. With using Gene Pulser (Bio-Rad Laboratories), DNA was introduced into the cells under the conditions shown below. That is, to the cuvette of 0.4 cm gap were added 8×10^6 cells and 10 μg of plasmid pCKR5 for expression of human CCR5, and electroporation was carried out under 0.25 kV of voltage and […] of capacitance. The cells were transferred into Ham's F12 medium (Nihon Pharmaceutical) containing 10% fetal calf serum, and cultivated for 24 hours. The cells were again took off and centrifuged, and suspended in Ham's F12 medium (Nihon Pharmaceutical) containing 10% fetal calf serum and 500 μg/ml of geneticin (Life Tech Oriental). The suspension was diluted to give 10^4 cells/ml of the suspension, which was inoculated on 96 well plate (Becton Dickinson) to give geneticin resistant cells. The resulting geneticin resistant cells were cultivated in 96 well plate (Becton Dickinson), and cells expressing CCR5 were selected from the geneticin resistant cells. That is, in assay buffer (Ham's F12 medium containing 0.5% BSA and 20 mM HEPES (Wako Pure Chemical, pH7.2) to which was added 200 pM of [^125I]-RANTES (Amersham) as ligand, binding reaction was carried out at room temperature for 40 minutes, and the buffer was washed with cooled PBS. To the buffer was added 50 μl/well of 1M NaOH, and the mixture was stirred. Radioactivity was determined with γ-counter to select CHO/CCR5 cells which specifically bind to the ligand.
(4) Evaluation of Test Compounds Based on CCR5 Antagonistic Activity
The CHO/CCR5 were inoculated on 96 well microplate (5×10^4 cells/well) and cultivated for 24 hours. The medium was removed by means of suction, and to each well was added assay buffer containing Test Compound (191) and then 100 pM of [^125I]-RANTES (Amersham) as ligand. Binding assay was carried out at room temperature for 40 minutes, and assay buffer was removed by means of suction. Each well was washed twice with cooled PBS, and 200 μl of Microscint-20 (Packard Instrument, Inc.) was added to each well.
For `CC(C)S(=O)(=O)N1CCC(C(=O)N(CCCN2CCC(Cc3ccc(F)cc3)CC2)c2ccc(Cl)c(Cl)c2)CC1` [Example 92, N-(3,4-Dichlorophenyl)-N-{3-[4-(4-fluorobenzyl)-1-piperidinyl]propyl}-1-(isopropylsulfonyl)-4-piperidinecarboxamide Trifluoroacetate], the inhibition at 1 µM worked out at 92%. `CCN(C1CCN(CCCN(C(=O)C2CCN(S(C)(=O)=O)CC2)c2ccc(Cl)c(Cl)c2)CC1)S(=O)(=O)c1ccc(S(C)(=O)=O)cc1` [Example 341, N-(3,4-Dichlorophenyl)-N-{3-[4-(ethyl{[4-(methylsulfonyl)phenyl]sulfonyl}amino)-1-piperidinyl]propyl}-1-(methylsulfonyl)-4-piperidinecarboxamide]: the inhibition at 1 µM worked out at 98%. As for `CC(=O)N1CCC(C(=O)N(CCCN2CCC(C#N)(Cc3ccccc3)CC2)c2cccc(Cl)c2)CC1` [Example 291, 1-Acetyl-N-[3-(4-benzyl-4-cyano-1-piperidinyl)propyl]-N-(3-chlorophenyl)-4-piperidinecarboxamide], the figure is 84%; as for `CC(=O)N1CCC(C(=O)N(CCCN2CCC(Cc3ccccc3)CC2)c2ccccc2)CC1` [Example 3, 1-Acetyl-N-[3-(4-benzyl-1-piperidinyl)propyl]-N-phenyl-4-piperidinecarboxamide], 98%; as for `CC(=O)N1CCC(C(=O)N(CCCN2CCN(Cc3ccc4c(c3)OCO4)CC2)c2cccc(Cl)c2)CC1` [Example 57, 1-Acetyl-N-(3-chlorophenyl)-N-[3-(4-piperonyl-1-piperazinyl)propyl]-4-piperidinecarboxamide Trifluoroacetate], 96%. As to `CS(=O)(=O)N1CCC(NC(=O)N(CCCN2CCC(Cc3ccccc3)CC2)c2ccccc2)CC1` [Example 15, N-[3-(4-Benzyl-1-piperidinyl)propyl]-N′-[1-(methylsulfonyl)-4-piperidinyl]-N-phenylurea], the inhibition at 1 µM came to 97%. As for `CS(=O)(=O)N1CCC(C(=O)N(CCCN2CCC(S(=O)(=O)c3ccc(F)cc3)CC2)c2ccc(Cl)c(Cl)c2)CC1` [Example 190, N-(3,4-Dichlorophenyl)-N-{3-[4-(4-fluorophenylsulfonyl)-1-piperidinyl]propyl}-1-(methylsulfonyl)-4-piperidinecarboxamide], the figure is 100%; as for `CC(=O)N1CCC(C(=O)N(CCCN2CCC(S(=O)(=O)c3ccc(F)cc3)CC2)c2ccc(Cl)c(Cl)c2)CC1` [Example 189, 1-Acetyl-N-(3,4-dichlorophenyl)-N-{3-[4-(4-fluorophenylsulfonyl)-1-piperidinyl]propyl}-4-piperidinecarboxamide], 100%. As for `CC(=O)N1CCC(C(=O)N(CCCN2CCC(Cc3ccc(C(N)=O)cc3)CC2)c2ccc(C)c(Cl)c2)CC1` [Example 376, 1-Acetyl-N-(3-{4-[4-(aminocarbonyl)benzyl]-1-piperidinyl}propyl)-N-(3-chloro-4-methylphenyl)-4-piperidinecarboxamide], the figure is 97%.

With `CC(=O)N1CCC(C(=O)N(CCCN2CCC(On3nnc4ccccc43)CC2)c2cccc(Cl)c2)CC1` [Example 88, 1-Acetyl-N-(3-chlorophenyl)-N-[3-[4-(1H-benzotriazol-1-yloxy)-1-piperidinyl]propyl]-4-piperidinecarboxamide Trifluoroacetate], the inhibition at 1 µM came out at 99%. The figure for `CS(=O)(=O)c1ccc(CC2CCN(CCCN(C(=O)C3CCN(S(C)(=O)=O)CC3)c3ccc(Cl)c(Cl)c3)CC2)cc1` [Example 420, N-(3,4-Dichlorophenyl)-1-(methylsulfonyl)-N-(3-{4-[4-(methylsulfonyl)benzyl]-1-piperidinyl}propyl)-4-piperidinecarboxamide Hydrochloride] is 98%. The figure for `Cc1cc(NS(=O)(=O)c2ccc(CC3CCN(CCCN(C(=O)C4CCN(S(C)(=O)=O)CC4)c4ccc(Cl)c(Cl)c4)CC3)cc2)no1` [Example 372, N-(3,4-Dichlorophenyl)-N-{3-[4-(4-{[(5-methyl-3-isoxazolyl)amino]sulfonyl}benzyl)-1-piperidinyl]propyl}-1-(methylsulfonyl)-4-piperidinecarboxamide] is 97%. The figure for `CS(=O)(=O)N1CCC(C(=O)N(CCCN2CCC(Cc3ccc(S(=O)(=O)N4CCOCC4)cc3)CC2)c2ccc(Cl)c(Cl)c2)CC1` [Example 356, N-(3,4-Dichlorophenyl)-1-(methylsulfonyl)-N-(3-{4-[4-(4-morpholinylsulfonyl)benzyl]-1-piperidinyl}propyl)-4-piperidinecarboxamide] is 100%.

As for `CS(=O)(=O)N1CCC(C(=O)N(CCCN2CCC(Cc3ccc(S(N)(=O)=O)cc3)CC2)c2ccc(Cl)c(Cl)c2)CC1` [Example 244, N-(3-{4-[4-(Aminosulfonyl)benzyl]-1-piperidinyl}propyl)-N-(3,4-dichlorophenyl)-1-(methylsulfonyl)-4-piperidinecarboxamide], the inhibition at 1 µM amounted to 100%. As for `COc1ccc(CC2CCN(CCCN(C(=O)C3CCN(C(C)=O)CC3)c3ccc(Cl)c(Cl)c3)CC2)cc1` [Example 249, 1-Acetyl-N-(3,4-dichlorophenyl)-N-{3-[4-(4-methoxybenzyl)-1-piperidinyl]propyl}-4-piperidinecarboxamide], the figure is 94%; as for `CS(=O)(=O)c1ccc(OC2CCN(CCCN(C(=O)C3CCN(S(C)(=O)=O)CC3)c3ccc(Cl)c(Cl)c3)CC2)cc1` [Example 374, N-(3,4-Dichlorophenyl)-1-(methylsulfonyl)-N-(3-{4-[4-(methylsulfonyl)phenoxy]-1-piperidinyl}propyl)-4-piperidinecarboxamide], 92%; as for `CC(=O)N1CCC(C(=O)N(CCCN2CCC(Cc3ccc(N4CCOCC4)cc3)CC2)c2ccc(Cl)c(Cl)c2)CC1` [Example 318, 1-Acetyl-N-(3,4-dichlorophenyl)-N-{3-[4-(4-morpholinobenzyl)-1-piperidinyl]propyl}-4-piperidinecarboxamide], 100%. For `CS(=O)(=O)N1CCC(C(=O)N(CCCN2CCC(Cc3ccc(-n4cnnn4)cc3)CC2)c2ccc(Cl)c(Cl)c2)CC1` [Example 309, N-(3,4-Dichlorophenyl)-1-(methylsulfonyl)-N-(3-{4-[4-(1H-tetrazol-1-yl)benzyl]-1-piperidinyl}propyl)-4-piperidinecarboxamide], the inhibition at 1 µM was 92%. `CCS(=O)(=O)c1ccc(CC2CCN(CCCN(C(=O)C3CCN(S(C)(=O)=O)CC3)c3cccc(Cl)c3)CC2)cc1` [Example 413, N-(3-Chlorophenyl)-N-(3-{4-[4-(ethylsulfonyl)benzyl]-1-piperidinyl}propyl)-1-(methylsulfonyl)-4-piperidinecarboxamide Hydrochloride]: the inhibition at 1 µM worked out at 99%. The figure for `CC(=O)N1CCC(C(=O)N(CCCN2CCC(Cc3ccc(S(N)(=O)=O)cc3)CC2)c2ccc(Cl)c(Cl)c2)CC1` [Example 243, 1-Acetyl-N-(3-{4-[4-(aminosulfonyl)benzyl]-1-piperidinyl}propyl)-N-(3,4-dichlorophenyl)-4-piperidinecarboxamide] is 99%; for `CS(=O)(=O)N1CCC(C(=O)N(CCCN2CCC(Cn3cnc4ccccc43)CC2)c2ccc(Cl)c(Cl)c2)CC1` [Example 261, N-{3-[4-(1H-Benzimidazol-1-ylmethyl)-1-piperidinyl]propyl}-N-(3,4-dichlorophenyl)-1-methylsulfonyl-4-piperidinecarboxamide] it is 98%.
